Measurements taken from US5190934A, “P-subsituted propane-phosphinic acid compounds” (Ciba-Geigy Corporation, priority 1989, dated 1993).

System: "epileptic"-like discharges of pyramidal cells
Assay: Penicilline-induced "epileptic" hippocampal slice preparation
Type: cell-based
Details: baclofen at 6 μM
Method: The GABAB antagonists of the present invention interact at the GABAB receptor with IC50 values starting from about 10^-7 M (moles/liter) in rat brain cortex membranes. […] The antagonism against baclofen has also been shown in in vitro electrophysiological models, such as the penicilline-induced "epileptic" hippocampal slice preparation, where baclofen, at a concentration of 6 μM inhibits "epileptic"-like discharges of pyramidal cells. The compounds of the invention antagonise the effects of baclofen at concentrations from approximately 10 to approximately 100 μM. In vivo, antagonism has been shown by ionophoresis of baclofen on rat cerebral cortex, and systemic application of antagonists in doses of 10-100 mg/kg. The muscle relaxant effects of baclofen measured in the rotarod model are also antagonized at doses of about 30 mg/kg i.p.

SMILES: NCC(CC(=O)O)c1ccc(Cl)cc1 (stereo not shown) [baclofen]
- effect on "epileptic"-like discharges of pyramidal cells: inhibits
